# Where no end group is shown, it is not given here.
# Assays:
# [1] = biological target: HLA-DQ2.5 (Homo sapiens, UniProt P01909+P01920, A45G/A70V/D89A/E106A/E77G/E98D/H199R/L107V/N214S/P84L/P87L/T103K/T109R/T172A/T60S/V78E/V99I/Y58L/Y62S/Y69I/Y79F); test: MHC class II binding competition assay with radiolabeled probe peptide; settings: competition with MHC class II bound radiolabeled probe peptide, purified MHC, 2-4 days incubation
# [2] = biological target: HLA-DQ8 (Homo sapiens, UniProt P01909+P01920, A209T/A45G/C70Q/D89A/DUP78-78/E183D/E77G/F237L/G63E/H199R/I129T/K197E/L178F/L74F/L98V/Q57E/Q76R/S185I/S97I/T217I/T49S/V73L/Y58L); test: as above; settings: competition with MHC class II bound radiolabeled probe peptide, purified MHC, 2-4 days incubation
# [3] = biological target: HLA-DQ2.2 (Homo sapiens, UniProt P01909+P01920, A45G/A70V/C70K/D167G/D89A/E106A/E183D/E77G/E98D/F237L/F77L/G63E/H199R/I129T/K197E/L107V/L178F/L74F/N214S/P84L/P87L/Q57E/Q76R/R75H/S185I/S97I/T103K/T109R/T172A/T60S/V73L/V78E/V99I/Y48F/Y58L/Y62S/Y69I/Y79F); test: as above; settings: competition with MHC class II bound radiolabeled probe peptide, purified MHC, 2-4 days incubation
# [4] = biological target: T1, HLA-DQ7.5 (Homo sapiens, UniProt P01909+P01920); test: as above; settings: competition with MHC class II bound radiolabeled probe peptide, purified MHC, 2-4 days incubation
# T1 construct: made in house
# Description: In-vitro testing of modified gluten peptides was performed by a Major histocompatibility complex (MHC class II) binding assay (Sidney J. et. al. Current protocols in immunology 100.1 (2013)). Briefly, competition assays using different concentrations of WT and modified low molecular weight glutenin subunit (LMW-GS) peptides were conducted by diluting the peptides in NP40 buffer, and incubation for 2-4 days with purified MHC and a radiolabeled known MHC binding peptide (peptide probe). MHC class II molecules were purified by affinity chromatography, and peptides were radiolabeled using the chloramine T method. After the incubation period, the bound and unbound radiolabeled species were separated, and their relative amounts were determined by either size-exclusion gel-filtration chromatography or monoclonal antibody capture of MHC. The percentage of bound radioactivity was then determined. For each modified peptide, IC50 of WT and modified peptide were calculated. The known gluten peptide epitopes were analyzed for MHC binding as a positive control, both in the non-deamidated and in the deamidated form.
# Tables I and II list the measured IC50 values from competition assays between the specified peptides and an MHC class II bound probe peptide.
# [5] = biological target: HLA-DQ8 (human); test: competition with radiolabeled probe peptide, purified MHC class II
# [6] = biological target: HLA-DQ2.5 (human); test: as above
# [7] = biological target: HLA-DQ2.2 (human); test: as above
Molecule,IC50 [1] [µM],IC50 [2] [µM],IC50 [3] [µM],IC50 [4] [µM],IC50 [5] [µM],IC50 [6] [µM],IC50 [7] [µM]
QQPFPEQQRSQFSQQ [SEQ ID NO: 85],> 40,35.8,> 40,> 40,,,
QSPFSRQQKSPFSQQ [SEQ ID NO: 80],> 40,> 40,> 40,> 40,,,
QQPPSSEQEHSPPSQ [SEQ ID NO: 79],,,,> 40,,,
QQPAFSRQHQPSLPQ [SEQ ID NO: 73],,,,> 40,,,
QQPPFSKQEQQQPIL [SEQ ID NO: 71],> 40,29.8,> 40,> 40,,,
QPPSSEQQHSPPSQQ [SEQ ID NO: 81],> 40,31.9,39.8,> 40,,,
QPPDSHQQHSPGSQQ [SEQ ID NO: 84],> 40,> 40,> 40,> 40,,,
QQPPFSHQRPPFSQQ [SEQ ID NO: 70],> 40,39.1,> 40,> 40,,,
QQPPDSHQEHSPGPQ [SEQ ID NO: 187],> 40,> 40,> 40,> 40,,,
QQSPFSRQEKSPFSQ [SEQ ID NO: 78],> 40,> 40,> 40,> 40,,,
QQPPFPRQHQQFPQQ [SEQ ID NO: 74],> 40,> 40,> 40,> 40,,,
GPPFSKQTEPVISQQ [SEQ ID NO: 186],> 40,38.2,> 40,> 40,,,
QPSFSRQQKQPQSQQ [SEQ ID NO: 86],> 40,> 40,> 40,> 40,,,
QQSPFPEQEQQHQQL [SEQ ID NO: 183],32.4,39.9,> 40,> 40,,,
QGPPFSKQTQPVIPQ [SEQ ID NO: 72],> 40,> 40,> 40,> 40,,,
QPFFSHQQRSGFSQQ [… (SEQ ID NO: 83)],,,,,39.2,,
QQPPFSEQEQPSSQQ [… (SEQ ID NO: 77)],,,,,31.5,32.3,
QPPSSEQQHSPPSQQ [… (SEQ ID NO: 81)],,,,,31.9,,39.8
QQPFPEQQRSQFSQQ [… (SEQ ID NO: 85)],,,,,35.8,,
QQPPFSKQEQQQPIL [… (SEQ ID NO: 71)],,,,,29.8,,
QSPFPEQQEQHQQLQ [… (SEQ ID NO: 185)],,,,,37.9,,
QQPPFWQHQPPFSQQ [… (SEQ ID NO: 76)],,,,,,37.4,
QPPFSEQQESPFSQQ [… (SEQ ID NO: 69)],,,,,1.14,0.158,
QQSPFPEQEQQHQQL [… (SEQ ID NO: 183)],,,,,39.9,32.4,
GPPFSKQTEPVISQQ [… (SEQ ID NO: 186)],,,,,38.2,,
QQPAFSRQHQPSLPQ [… (SEQ ID NO: 73)],,,,,,30.4,
QQPPFSHQRPPFSQQ [… (SEQ ID NO: 70)],,,,,39.1,,

# — patent US20250074955A1, “MODIFIED LOW MOLECULAR WEIGHT GLUTENIN SUBUNIT AND USES THEREOF” (Ukko Inc., priority 2022, published 2025)
